Reference: patent US11590128B2, “Combination therapy of a type II anti-CD20 antibody with a selective BCL-2 inhibitor” (GENENTECH, INC., priority 2012, dated 2023)

Tests used:
[1] = system: SU.DHL-4 diffuse large B-cell lymphoma xenograft; test: NHL xenograft model of aggressive lymphoma (DLBCL SU.DHL-4), Example 1; format: in vivo, mice
From the text: The study used a non-Hodgkin's lymphoma (NHL) xenograft model of aggressive lymphoma, the diffuse large B-cell lymphoma (DLBCL) derived cell line SU.DHL-4.
In FIG. 1, the dose of GDC-0199 is expressed as free base equivalents in mg/kg of body weight. Results are expressed as the fitted tumor volume as determined by linear mixed effects modeling for each treatment group vs. time in days, where Day 0 is the first day of treatment.

[2] = system: human Z138 mantle cell lymphoma cells; test: Tumor growth inhibition study in vivo, Z138 mantle cell lymphoma xenograft, Example 3; design: species or system SCID beige mice; conditions: day 35 after tumor cell inoculation; antibodies 1 mg/kg i.p. once weekly x3; GDC-0199 100 mg/kg p.o. once daily for 17 days
Method: Animals. […] Continuous health monitoring was carried out on regular basis.
Monitoring. Animals were controlled daily for clinical symptoms and detection of adverse effects.
Treatment of animals. […] The corresponding vehicle was administered on the same days.

DLBCL SU-DHL-4 xenograft = DLBCL SU-DHL-4 xenograft model, combination followed by single-agent GDC-0199, Example 4; format: in vivo, mice; conditions: GDC-0199 orally for 21 days, GA101 1 mg/kg QW for 3 weeks; alone or in combination
Method: At day 22 tumor bearing mice in the combination cohort continued to be dosed with GDC-0199 alone at 100 mg/kg for an additional 24 days.
As explained above, a cohort of tumor bearing mice was also dosed with GDC-0199 alone for an additional 24 days after combination treatment ended on day 21 (QD×45). Under the x-axis, treatment periods are denoted by solid black lines ( ? ) for the combination cohorts while the continued single agent GDC-0199 treatment is denoted by dashed black line ( ? ).

Compound	tumor growth inhibition (TGI) ([1]; after three weeks of therapy (treatment ended day 21)) [%]	tumor growth inhibition (TGI) ([1]; at day 31 (10 days after dosing ended)) [%]	antitumor outcome (in words) ([1]; obinutuzumab 1 mg/kg IV once a week for 3 weeks, GDC-0199 100 mg/kg QD for 21 days, alone or combined)	tumor growth inhibition compared to the control group [2] [%]	tumor growth inhibition (TGI) (DLBCL SU-DHL-4 xenograft) [%]
CC1(C)CCC(CN2CCN(c3ccc(C(=O)NS(=O)(=O)c4ccc(NCC5CCOCC5)c([N+](=O)[O-])c4)c(Oc4cnc5[nH]ccc5c4)c3)CC2)=C(c2ccc(Cl)cc2)C1 [GDC-0199, 2-(1H-pyrrolo[2,3-b]pyridin-5-yloxy)-4-(4-((2-(4-chlorophenyl)-4,4-dimethylcyclohex-1-enyl)methyl)piperazin-1-yl)-N-(3-nitro-4-(((tetrahydro-2H-pyran-4-yl)methyl)amino)phenylsulfonyl)benzamide]	80	25	stasis followed by tumor growth delay	59	24
rituximab: type I anti-CD20 antibody	–	–	–	32	–
